{"source": "paper PMC3454376", "about": "“Salidroside Improves Behavioral and Histological Outcomes and Reduces Apoptosis via PI3K/Akt Signaling after Experimental Traumatic Brain Injury” (PLoS ONE, 2012)", "tested_on": "mice subjected to controlled cortical impact injury", "assay": "Residual cerebral tissue ratio, cresyl violet staining", "type": "in vivo", "settings": "day 28; for preservation of brain tissue (ipsilateral/contralateral hemisphere volume): vehicle 76.4±3.3%, P<0.05", "description": "All animal procedures were approved by the Animal Research Committee at Cheng Hsin General Hospital (Animal permit number CHIACUC 101–08), and all procedures complied with the Guide for the Care and Use of Laboratory Animals published by the US National Institutes of Health (NIH Publication No. 85–23, revised 1996). Animals were housed under a 12-h light/dark cycle and at constant temperature (21–25°C) and humidity (45–50%). They were allowed free access to pellet chow and water. TBI in mice was induced by a CCI injury model as previously described. Briefly, 8-week-old male C57BL/6 mice (weighing 22–25 g) were anesthetized through the use of intraperitoneal injection of sodium pentobarbital (65 mg/kg; Rhone Merieux, Harlow, UK) and placed in a stereotaxic frame. A 5 mm craniotomy was performed over the right parietal cortex, centered on the coronal suture and 0.1 mm lateral to the sagittal suture, and injury to dura was avoided. Injury was induced using a pneumatic piston with a rounded metal tip (2.5 mm diameter) that was angled 22.5° to the vertical so that the tip was perpendicular with the brain surface at the center of the craniotomy. The impact, with a velocity of […] and a deformation depth of 2 mm below the dura, was applied. The bone flap was immediately replaced and sealed, and the scalp was sutured. Body temperature was monitored throughout the surgery by a rectal probe; temperature was maintained at 37.0±0.5°C using a heated pad. Mice were placed in a heated cage to maintain body temperature, while recovering from anesthesia. Sham-operated mice underwent the same procedure as injured mice, but without CCI.\nMice were anesthetized and positioned in a stereotaxic frame. LY294002 (200 nM in 0.5 µL of saline) or equal amount of physiological saline was intracerebroventricularly (icv) injected at 30 min before CCI as previously described. A 1 mm cranial burr hole was drilled into the skull. A 30-gauge needle on a Hamilton syringe was implanted into the lateral ventricle using stereotactic coordinates: 1.5 mm posterior to bregma and 1.0 mm right lateral to the midline, 2 mm in depth. LY294002 or saline was infused into the brain at a rate of 0.05 µL/min over 10 min with an infusion pump (KDS 310, KD Scientific Inc., Holliston, MA, USA), and the needle was left in place for an additional 20 min to prevent reflux. After the needle was removed, CCI procedure was conducted immediately. Sham-operated mice were infused icv with saline, but were not subjected to CCI.\nThree sets of experiments were performed. […] To determine the optimal dose of salidroside, a pilot study was performed using 2 different doses (20 and 50 mg/kg) administered 10 min after injury, and neurological deficits and tissue damage were evaluated as the main outcomes. […]"}
{"smiles": "OC[C@H]1O[C@@H](OCCc2ccc(O)cc2)[C@H](O)[C@@H](O)[C@@H]1O", "note": "[SALD, salidroside]", "values": [{"measurement": "preservation of brain tissue (ipsilateral/contralateral hemisphere volume)", "setting": "20 mg/kg ip 10 min after CCI", "result": "81.9±2.6", "unit": "%"}, {"measurement": "preservation of brain tissue (ipsilateral/contralateral hemisphere volume)", "setting": "50 mg/kg ip 10 min after CCI", "result": "80.7±2.8", "unit": "%"}, {"measurement": "residual cerebral tissue ratio", "setting": "icv saline 30 min before CCI, then SALD 20 mg/kg ip (S20S group)", "result": "80.5±5.8", "unit": "%"}]}
